Measured values reported in patent US10526291B2, “Potent dual BRD4-kinase inhibitors as cancer therapeutics” (H. Lee Moffitt Cancer Center and Research Institute, Inc., priority 2014, dated 2020).

Target: BRD4 (Homo sapiens, UniProt O60885)
Assay: Differential Scanning Fluorimetry (DSF), stability of BRD4 upon ligand binding
Details: for ΔTm at 4 µM: 100 μM protein, 4 μM compound and 2% DMSO; for IC50: estimated
Procedure: DSF=Differential Scanning Fluorimetry; provides a measure of the increased stability of BRD4 upon ligand binding The DSF experiment was run at 100 μM protein, 4 μM compound and 2% DMSO.

Row | SMILES | ΔTm at 4 µM [°C] | IC50 [nM]
1 | Cc1cnc(Nc2ccc(N3CCN(C)CC3)cc2)nc1Nc1ccc(Cl)c(OC(C)C)c1 | 6.3 ± 0.1 | 170
2 | CCOc1cc(Nc2nc(Nc3ccc(N4CCN(C)CC4)cc3)ncc2Cl)ccc1Cl | 3.7 ± 0.12 | 1300
3 | Cc1cnc(Nc2ccc(CC(=O)N3CCN(C)CC3)cc2)nc1Nc1ccc(Cl)c(NS(=O)(=O)C(C)(C)C)c1 | 9.8 ± 0.03 | 12
4 | Cc1cnc(Nc2ccc(N3CCN(C)CC3)cc2)nc1Nc1ccc(Cl)c(NS(=O)(=O)c2ccccc2)c1 | 4.1 ± 0.1 | 960
5 | COc1cc(Nc2nc(Nc3ccc(N4CCN(C)CC4)cc3)ncc2C(C)C)ccc1Cl | 1.4 ± 0.11 | 7400
6 | COc1cc(Nc2nc(Nc3ccc(N4CCNCC4)cc3)ncc2C)ccc1Cl | 7.1 ± 0.15 | 92
7 | COc1ccc(Nc2nc(Nc3ccc(N4CCN(C)CC4)cc3)ncc2C)cc1OC | 5.6 ± 0.059 | 290
8 | CC(C)(C)c1cccc(Nc2nc(Nc3ccc(N4CCOCC4)cc3)ncc2Cl)c1 | -0.34 | 28200
9 | Cc1cnc(Nc2ccc(N3CCN(C)CC3)c(F)c2)nc1Nc1cccc(NS(=O)(=O)C2(C)CC2)c1 | 9.1 ± 0.05 | 20
10 | CCOC(=O)c1cnc(Nc2ccc(N3CCN(C)CC3)cc2)nc1Nc1ccc(Cl)c(OC)c1 | 0.24 ± 0.13 | 18000
11 | Cc1cnc(Nc2ccc(N3CCN(C)CC3)cc2)nc1Nc1cccc(NC(=O)NC(C)C)c1 | 2.1 ± 0.1 | 4300
12 | CN1CCN(c2ccc(Nc3nc4c(c(Nc5cccc(S(=O)(=O)NC6CC6)c5)n3)CCC4)cc2)CC1 | 4.9 ± 0.099 | 520
13 | COc1cc(Nc2cc(C)nc(Nc3ccc(N4CCN(C)CC4)cc3)n2)ccc1Cl | 2.6 ± 0.095 | 2900
14 | COc1cccc(Nc2nc(Nc3ccc(N4CCN(C)CC4)cc3)ncc2C)c1 | 3.2 ± 0.083 | 1850
15 | Cc1cnc(Nc2cc(F)c(N3CCN(C)CC3)c(F)c2)nc1Nc1ccc(Cl)c(NS(=O)(=O)C(C)(C)C)c1 | 13.8 ± 0.191 | 3.29
16 | Cc1cnc(Nc2cc(F)c(N3CCN(C)CC3)c(F)c2)nc1Nc1ccc(Cl)c(NS(=O)(=O)C2(C)CC2)c1 | 12.3 ± 0.167 | 8.6
17 | Cc1cnc(Nc2ccc(N3CCN(C)CC3)cc2)nc1Nc1ccc(F)c(NS(=O)(=O)C(C)(C)C)c1 | 9.5 ± 0.07 | 14
18 | Cc1cnc(Nc2ccc(N3CCN(C)CC3)cc2)nc1Nc1ccc(C(=O)NC2CC2)cc1 | 6.5 ± 0.11 | 150

Row | SMILES | ΔTm at 4 µM [°C] | IC50 [nM]
19 | Cc1cnc(Nc2ccc(C3CCN(C)CC3)cc2)nc1Nc1cccc(NS(=O)(=O)C(C)(C)C)c1 | 7.6 ± 0.28 | 61
20 | Cc1cnc(Nc2ccc(C(=O)NC3CCN(C)CC3)c(F)c2)nc1Nc1ccc(Cl)c(NS(=O)(=O)C2(C)CC2)c1 | 10.9 ± 0.22 | 21
21 | Cc1cnc(Nc2ccc(N3CCN(C)CC3)cc2)nc1Nc1cccc(NS(=O)(=O)CC(C)C)c1 | 6.58 ± 0.103 | 347
22 | CN1CCN(c2ccc(Nc3nc4c(c(Nc5ccc(Cl)c(NS(=O)(=O)C6CC6)c5)n3)COC4)cc2)CC1 | 5.4 ± 0.2 | 350
23 | CN1CCN(c2ccc(Nc3ncc(C(F)(F)F)c(Nc4cccc(S(=O)(=O)NC(C)(C)C)c4)n3)cc2)CC1 | 0.2 ± 0.082 | 18600
24 | CCOc1cccc(Nc2nc(Nc3ccc(N4CCN(C)CC4)cc3)ncc2Cl)c1 | 4.3 ± 0.12 | 790
25 | CC(C)NS(=O)(=O)c1cccc(Nc2nc(Nc3ccc(N4CCOCC4)cc3)ncc2Br)c1 | -0.79 | 39800
26 | COc1ccc(Nc2nc(C)c(C)c(Nc3cccc(S(N)(=O)=O)c3)n2)cc1 | 0.12 ± 0.13 | 19800
27 | COc1ccc(Nc2nc(C)c(C)c(Nc3cccc(S(=O)(=O)NC(C)(C)C)c3)n2)cc1 | 0.22 ± 0.2 | 18300
28 | COc1ccc(Nc2nc(Nc3ccc(N4CCN(C)CC4)cc3)ncc2Cl)cc1OC | 5.1 ± 0.039 | 430
29 | CCc1cnc(Nc2ccc(N3CCN(C)CC3)cc2)nc1Nc1cccc(S(=O)(=O)NC(C)C)c1 | 2.2 | 3990
30 | Cc1cnc(Nc2ccc(N3CCN(C)CC3)cc2)nc1Nc1ccc2c(c1)OCCO2 | 4.4 ± 0.11 | 740
31 | Cc1cnc(Nc2cc(F)c(N3CCN(C)CC3)c(F)c2)nc1Nc1cccc(NS(=O)(=O)C(C)(C)C)c1 | 12.8 ± 0.058 | 6.28
32 | CCc1cnc(Nc2ccc(N3CCN(C)CC3)cc2)nc1Nc1cccc(S(=O)(=O)NC(C)(C)C)c1 | 3.2 | 1850
33 | CC(C)NS(=O)(=O)c1cccc(Nc2nc(Nc3ccc(N4CCN(C)CC4)cc3)nc3c2COC3)c1 | 0.6 ± 0.14 | 14000
34 | Cc1cnc(Nc2ccc(N3CCN(C)CC3)cc2)nc1Nc1cccc(NS(=O)(=O)C(C)C)c1 | 7.5 ± 0.14 | 66
35 | Cc1ccc(Nc2nc(Nc3ccc(N4CCN(C)CC4)cc3)ncc2C)cc1S(=O)(=O)NC1CCC1 | 6.7 ± 0.13 | 130

More lines, in order of falling IC50, values ahead:

Row | ΔTm at 4 µM [°C] | IC50 [nM] | SMILES
36 | -0.0084 | 21800 | CCc1cnc(Nc2ccc(N3CCOCC3)cc2)nc1Nc1cccc(S(=O)(=O)NC(C)(C)C)c1
37 | 0.16 | 19200 | CC(C)NS(=O)(=O)c1cccc(Nc2nc(N3CCN(c4ccc(N)cc4)CC3)ncc2Br)c1
38 | 1.3 ± 0.11 | 7980 | CCc1cnc(Nc2ccc(N3CCN(C)CC3)cc2)nc1Nc1ccc(Cl)c(OC)c1
39 | 2 ± 0.42 | 4700 | COc1cc(Nc2nc(Nc3ccc(N4CCN(C)CC4)cc3)ncc2Cl)cc(OC)c1Cl
40 | 3.5 ± 0.17 | 1500 | COc1cc(Nc2nc(Nc3ccc(N4CCN(C)CC4)cc3)ncc2Cl)cc(OC)c1
41 | 4.1 ± 0.07 | 900 | Cc1cnc(Nc2ccc(N3CCN(C)CC3)cc2)nc1Nc1cccc(NS(=O)(=O)c2ccccc2)c1
42 | 4.5 ± 0.1 | 680 | COc1cc(Nc2nc(Nc3ccc(N4CCNCC4)cc3)ncc2Br)ccc1Cl
43 | 4.6 ± 0.12 | 630 | CC(C)NS(=O)(=O)c1cccc(Nc2nc(Nc3ccc(N4CCN(C)CC4)cc3)ncc2Cl)c1
44 | 4.6 ± 0.21 | 630 | Cc1cnc(Nc2ccc(N3CCN(C)CC3)cc2)nc1Nc1cccc(NC(=O)C2CC2)c1
45 | 4.9 ± 0.11 | 500 | CN1CCN(c2ccc(Nc3nc4c(c(Nc5cccc(S(=O)(=O)NC(C)(C)C)c5)n3)CCC4)cc2)CC1
46 | 5 | 460 | CC(C)NS(=O)(=O)c1cccc(Nc2nc(Nc3ccc(N4CCNCC4)cc3)ncc2Br)c1
47 | 6.1 ± 0.032 | 200 | Cc1ccc(Nc2nc(Nc3ccc(N4CCN(C)CC4)cc3)nc3ccccc23)cc1S(=O)(=O)NC(C)(C)C
48 | 6.6 ± 0.1 | 140 | Cc1cnc(Nc2ccc(N3CCN(C)CC3)cc2)nc1Nc1cccc(OC(C)C)c1
49 | 8.4 ± 0.13 | 34 | Cc1cnc(Nc2ccc(N3CCN(C)CC3)cc2)nc1Nc1ccc(Cl)c(S(=O)(=O)NC(C)(C)C)c1
50 | 8.6 ± 0.09 | 30 | Cc1ccc(Nc2nc(Nc3ccc(N4CCN(C)CC4)cc3)ncc2C)cc1S(=O)(=O)NC(C)(C)C
51 | 10.4 ± 0.151 | 29.5 | Cc1cc(Nc2ncc(C)c(Nc3ccc(Cl)c(NS(=O)(=O)C(C)(C)C)c3)n2)ccc1N1CCN(C)CC1
52 | 10.5 ± 0.15 | 27.7 | Cc1cnc(Nc2ccc(N3CCN(C)CC3)c(F)c2)nc1Nc1ccc2c(c1)N(S(=O)(=O)C(C)(C)C)CCC2
